Measured values published in publication PMC7413254 (Nature Communications, 2020).

Test system: PfCRT
Test: Test of solutes as potential co-substrates for influx of VF-6 via PfCRT into the oocyte
Type: cell-based, Plasmodium falciparum
Set-up: key: X: Compounds that have been tested as potential co-substrates but are not required for influx of VF-6 via PfCRT into the oocyte
Conditions: X = tested

Compound | Tested as potential co-substrate but not required for influx of VF-6 via PfCRT into the oocyte
C[C@H](N)C(=O)O [L-alanine] | X
N=C(N)NCCC[C@H](N)C(=O)O [L-arginine] | X
NC(=O)C[C@H](N)C(=O)O [L-asparagine] | X
N[C@@H](CS)C(=O)O [L-cysteine] | X
N[C@@H](CCC(=O)O)C(=O)O [L-glutamic acid] | X
NC(=O)CC[C@H](N)C(=O)O [L-glutamine] | X
CC[C@H](C)[C@H](N)C(=O)O [L-isoleucine] | X
CC(C)C[C@H](N)C(=O)O [L-leucine] | X
NCCCC[C@H](N)C(=O)O [L-lysine] | X
CSCC[C@H](N)C(=O)O [L-methionine] | X
